Results: patent US10981926B2 (Janssen Pharmaceutica NV, priority 2016, dated 2021)

Experiments:
[1] = target: T1, wild-type Androgen Receptor (AR-wt) (Homo sapiens (Human), UniProt P10275); assay: LNCaP-AR-wt ANT reporter assay (antagonist mode); type: cell-based; conditions: for IC50: antagonist mode, pIC50 = −Log10(IC50 in Molar), read-out: LNCaP-AR-wt ANT pIC50 (converted); for Emax: maximum % inhibition of R1881 control response over the tested concentration range, read-out: LNCaP-AR-wt ANT MAX % Inh
T1 sequence (P10275 whole entry): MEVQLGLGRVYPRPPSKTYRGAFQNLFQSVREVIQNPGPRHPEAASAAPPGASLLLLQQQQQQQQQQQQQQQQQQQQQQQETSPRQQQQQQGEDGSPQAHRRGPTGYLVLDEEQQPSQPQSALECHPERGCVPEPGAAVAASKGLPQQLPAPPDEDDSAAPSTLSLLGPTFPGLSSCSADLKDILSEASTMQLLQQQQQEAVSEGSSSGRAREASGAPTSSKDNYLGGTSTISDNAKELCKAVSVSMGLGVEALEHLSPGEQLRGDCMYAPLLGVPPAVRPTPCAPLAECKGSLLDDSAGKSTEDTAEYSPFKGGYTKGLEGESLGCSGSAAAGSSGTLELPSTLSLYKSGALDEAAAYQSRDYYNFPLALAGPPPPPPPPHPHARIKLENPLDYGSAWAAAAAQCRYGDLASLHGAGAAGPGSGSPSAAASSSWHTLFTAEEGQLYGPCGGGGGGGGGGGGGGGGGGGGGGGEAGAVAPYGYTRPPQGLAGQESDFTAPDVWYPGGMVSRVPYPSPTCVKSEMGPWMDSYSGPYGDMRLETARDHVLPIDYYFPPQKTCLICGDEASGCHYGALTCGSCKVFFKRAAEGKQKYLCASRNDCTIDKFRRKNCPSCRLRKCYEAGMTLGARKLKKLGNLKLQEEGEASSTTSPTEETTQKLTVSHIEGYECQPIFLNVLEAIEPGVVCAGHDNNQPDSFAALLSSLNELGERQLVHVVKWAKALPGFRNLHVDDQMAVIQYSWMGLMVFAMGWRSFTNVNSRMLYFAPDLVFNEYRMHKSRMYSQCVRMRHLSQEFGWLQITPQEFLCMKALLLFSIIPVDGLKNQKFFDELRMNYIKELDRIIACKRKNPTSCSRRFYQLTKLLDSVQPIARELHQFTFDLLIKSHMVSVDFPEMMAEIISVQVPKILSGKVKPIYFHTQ

[2] = target: T1, wild-type Androgen Receptor (AR-wt); assay: LNCaP-AR-wt AG reporter assay (agonist mode); type: cell-based; conditions: for EC50: agonist mode, pEC50 = −Log10(EC50 in Molar), read-out: LNCaP-AR-wt AG pEC50 (converted); for Emax: maximum % stimulation (agonist response) over the tested concentration range, read-out: LNCaP-AR-wt AG MAX % Stim
[3] = target: T2, F876L mutant Androgen Receptor (AR-F876L) (Homo sapiens (Human), UniProt P10275, F877L); assay: LNCaP-AR-F876L ANT reporter assay (antagonist mode); type: cell-based; conditions: for IC50: antagonist mode, pIC50 = −Log10(IC50 in Molar), read-out: LNCaP-AR-F876L ANT pIC50 (converted); for Emax: maximum % inhibition of R1881 control response over the tested concentration range, read-out: LNCaP-AR-F876L ANT MAX % Inh
T2 sequence (P10275 whole entry F877L): as the sequence (P10275 whole entry) above, with F877L counted along it

[4] = target: T2, F876L mutant Androgen Receptor (AR-F876L); assay: LNCaP-AR-F876L AG reporter assay (agonist mode); type: cell-based; conditions: for EC50: agonist mode, pEC50 = −Log10(EC50 in Molar), read-out: LNCaP-AR-F876L AG pEC50 (converted); for Emax: maximum % stimulation (agonist response) over the tested concentration range, read-out: LNCaP-AR-F876L AG MAX % Stim
[5] = test system: rGABA-gated Cl− channel; assay: GABA-Gated Cl Channel Antagonist Radioligand Binding Assay; parameters: species or system rat; conditions: 10 μM single point, [35S]-TBPS, cerebral cortex membrane homogenates
In short: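 Values give percent inhibition of control specific […] (3 nM) binding at a single 10 μM compound concentration. Cerebral cortex membranes, 120 min, 22° C, phosphate buffer pH 7.4 with 500 mM NaCl; 20 μM picrotoxinin sets nonspecific binding; filtration and scintillation read-out.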

SMILES | IC50 [1] | Emax [1] | EC50 [2] | Emax [2] | IC50 [3] | Emax [3] | EC50 [4] | Emax [4] | rGABA-gated Cl− channel % inh @10 μM [5]
C#CCN1CCC(Oc2ccc(N3C(=S)N(c4cnc(C#N)c(C(F)(F)F)c4)C(=O)C34CCC4)cc2)CC1 [Cpd 107, 5-[5-oxo-8-[4-[(1-prop-2-ynyl-4-piperidyl)oxy]phenyl]-7-thioxo-6,8-diazaspiro[3.4]octan-6-yl]-3-(trifluoromethyl)pyridine-2-carbonitrile] | 22.9 nM | 101% | > 15.1 µM | 0.5% | 24.5 nM | 97.5% | > 15.1 µM | 1.9% | 87.2%
N#Cc1ncc(N2C(=O)C3(CCC3)N(c3ccc4c(c3)CCNC4)C2=S)cc1C(F)(F)F [Cpd 108, 5-(8-oxo-5-(1,2,3,4-tetrahydroisoquinolin-6-yl)-6-thioxo-5,7-diazaspiro[3.4]octan-7-yl)-3-(trifluoromethyl)picolinonitrile] | 1660 nM | 98.3% | > 15.1 µM | 0.7% | 1020 nM | 94.8% | > 15.1 µM | 0.2% | 17.1%
CN1CCC(n2ncc3cc(N4C(=S)N(c5cnc(C#N)c(C(F)(F)F)c5)C(=O)C45CCC5)ccc32)CC1 [Cpd 109, 5-[8-[1-(1-methyl-4-piperidyl)indazol-5-yl]-5-oxo-7-thioxo-6,8-diazaspiro[3.4]octan-6-yl]-3-(trifluoromethyl)pyridine-2-carbonitrile] | 2820 nM | 96.1% | > 15.1 µM | 0% | 1350 nM | 98.8% | > 15.1 µM | 0.2% | 20.6%
N#Cc1ncc(N2C(=O)C3(CCC3)N(c3ccc(OC4CCCO4)cc3)C2=S)cc1C(F)(F)F (stereo not drawn) [Cpd 111, 5-[5-oxo-8-(4-tetrahydrofuran-2-yloxyphenyl)-7-thioxo-6,8-diazaspiro[3.4]octan-6-yl]-3-(trifluoromethyl)pyridine-2-carbonitrile] | 132 nM | 101% | > 15.1 µM | 0.8% | 117 nM | 101% | > 15.1 µM | 0.4% | 2.8%
N#Cc1ncc(N2C(=O)C3(CCC3)N(c3ccc(C4=C[C@@H](O)[C@H](O)CO4)cc3)C2=S)cc1C(F)(F)F [Cpd 112, 5-(5-(4-((3R,4R)-3,4-dihydroxy-3,4-dihydro-2H-pyran-6-yl)phenyl)-8-oxo-6-thioxo-5,7-diazaspiro[3.4]octan-7-yl)-3-(trifluoromethyl)picolinonitrile] | 269 nM | 102% | > 15.1 µM | 0.3% | 282 nM | 100% | > 15.1 µM | 0.2% | 99.1%
N#Cc1ncc(N2C(=O)C3(CCC3)N(c3ccc4nn(C5CCNCC5)cc4c3)C2=S)cc1C(F)(F)F [Cpd 115, 5-[5-oxo-8-[2-(4-piperidyl)indazol-5-yl]-7-thioxo-6,8-diazaspiro[3.4]octan-6-yl]-3-(trifluoromethyl)pyridine-2-carbonitrile] | 575 nM | 87% | > 15.1 µM | -0.1% | 288 nM | 104% | > 15.1 µM | 0.1% | 40.0%
N#Cc1ncc(N2C(=O)C3(CCC3)N(c3ccc4c(cnn4C4CCNCC4)c3)C2=S)cc1C(F)(F)F [Cpd 119, 5-[5-oxo-8-[1-(4-piperidyl)indazol-5-yl]-7-thioxo-6,8-diazaspiro[3.4]octan-6-yl]-3-(trifluoromethyl)pyridine-2-carbonitrile] | 537 nM | 102% | > 15.1 µM | 0.1% | 195 nM | 100% | > 15.1 µM | 2.7% | 43.1%
